From patent US20100061994A1, “MEDICAL USES OF 39-DESMETHOXYRAPAMYCIN AND ANALOGUES THEREOF” (priority 2005, published 2010) come the findings set out here.

In one series the test system is MDA468. As to the kind of experiment: Monolayer proliferation assay Protocol 1 (propidium iodide). The format is cell-based, human. The note with it: 4 days, mean of duplicate experiments. The protocol:
(§1) In vitro evaluation of compounds for anticancer activity in a panel of 12 human tumour cell lines in a monolayer proliferation assay were carried out at the Oncotest Testing Facility, Institute for Experimental Oncology, Oncotest GmbH, Freiburg.
(§2) A modified propidium iodide assay was used to assess the effects of the test compound(s) on the growth of twelve human tumor cell lines (Dengler et al, 1995).
(§3) Briefly, cells were harvested from exponential phase cultures by trypsinization, counted and plated in 96 well flat-bottomed microtitre plates at a cell density dependent on the cell line (5-10.000 viable cells/well). […] Each concentration was plated in triplicate. 39-Desmethoxyrapamycin was applied in two concentrations (0.001 mM and 0.01 mM).
(§4) Growth inhibition was expressed as treated/control×100 (% TIC). For active compounds, IC50 & IC70 values were estimated by plotting compound concentration versus cell viability.
(§5) In vitro evaluation of 39-desmethoxyrapamycin for anticancer activity in a panel of 12 human tumour cell lines in a monolayer proliferation assay was carried out as described as Protocol 1 in the general methods above using a modified propidium iodide assay.

A further series has as its system 1138L. Described as above. The format is cell-based, human. The note with it: 4 days, mean of duplicate experiments. The protocol:
as §1, §2, §3, §4, §5

Another series relates to H460. The series is described as above. The format is cell-based, human. The settings on record: 4 days, mean of duplicate experiments. The protocol:
as §1, §2, §3, §4, §5

The next series relates to 251L. The description is as above. The format is cell-based, human. The note with it: 4 days, mean of duplicate experiments. The protocol:
as §1, §2, §3, §4, §5

Another series deals with MCF7. The series is described as above. The format is cell-based, human. The note with it: 4 days, mean of duplicate experiments. The procedure:
as §1, §2, §3, §4, §5

The next series concerns A498. Described as above. The format is cell-based, human. The settings on record: 4 days, mean of duplicate experiments. The procedure: as §1, §2, §3, §4, §5
A further series concerns LNCAP. The description is as above. The format is cell-based, human. The settings on record: 4 days, mean of duplicate experiments. The protocol:
as §1, §2, §3, §4, §5

Another series deals with Caco-2 cells. As to the kind of experiment: Caco-2 permeation assay. The settings on record: 0.01 mM. In general terms: Passage across Caco-2 layers is used to estimate intestinal permeability.
For series [1] the following is noted: mouse, in vivo.
Procedure: The test compounds were prepared in a vehicle consisting of 4% Ethanol, 5% Tween-20, 5% polyethyleneglycol 400 in 0.15M NaCl. A single dbse of 10 mg/kg p.o. or 3 mg/kg i.v. was administered to groups of female CD1 mice (3 mice for each compound per time point). At 0 min, 4 min, 15 min, 1 h, 4 h, and 24 h groups were sacrificed and the blood and the brain were collected from each mouse for further analysis.
The brain samples were snap frozen in liquid nitrogen and stored at −20° C. A minimum of 0.2 mL of whole blood from each animal was collected in tubes containing ethylene diamine tetra-acetic acid (EDTA) as anticoagulant, thoroughly mixed, and stored at −20° C.
Analysis was performed by ASI Limited, (St George's Hospital Medical School, London). The concentration of the test compound in the blood and brain samples supplied was determined by HPLC with MS detection. Control, test compound free, blood samples were obtained from Harlan Sera-Lab Limited, (Loughborough, England). Time zero brain samples were supplied as control, test compound free, brain samples.
One hemisphere of each brain was homogenized with 5 mL water.
The control or test sample of mouse brain or blood (0.05 mL), internal standard solution (0.1 mL), 5% Zinc sulphate solution (0.5 mL), and acetone (0.5 mL) were pipetted into a 2 mL polypropylene tube (Sarstedt Limited, Beaumont Leys, Leicester, UK) and the contents were then mixed for a minimum of 5 minutes (IKA-Vibrax-VXR mixer, Merck (BDH) Limited, Poole Dorset, UK). The tubes were then centrifuged in a microfuge for a minimum of 2 minutes. The solvent layer was decanted into a 4.5 mL polypropylene tube containing sodium hydroxide (0.1M, 0.1 mL) and methyl-tert-butyl ether (MTBE, 2 mL). The tube was then mixed for a minimum of 5 minutes (IKA-Vibrax-VXR mixer) and then centrifuged at 3500 rpm for 5 minutes. The solvent layer was transferred to a 4.5 mL conical polypropylene tube, placed in a SpeedVac® and evaporated to dryness.
The dried extracts were reconstituted with 0.15 mL 80% methanol and mixed for a minimum of 5 minutes (IKA-Vibrax-VXR mixer) and centrifuged at 3500 rpm for 5 minutes. The extract was transferred to auto sampler tubes (NLG Analytical, Adelphi Mill, Bollington, Cheshire, UK) and placed into the auto-sampler tray which was set at ambient temperature. The auto-sampler was programmed to inject a 0.03 mL aliquot of each extract onto the analytical column.
The AUC for each compound in blood or in brain tissue was calculated using Kinetica 4.4 (InnaPhase Corporation), using a non-compartmental model and the trapezoidal method for AUC calculation.
The partition coefficient (Ri) for each compound after p.o. and i.v. administration was calculated as shown below:
The partition coefficient (R) for each compound after i.v. administration was calculated as shown below:
The test system of the next series is EAE. The series can be described thus: Experimental allergic encephalomyelitis (EAE) model of multiple sclerosis. The format is in vivo, male Lewis rats.
Another series deals with NCI 60 cell line panel. As to the kind of experiment: NCI 60 cell line panel monolayer proliferation assay (Protocol 2, SRB) with COMPARE analysis. The format is cell-based, human. The settings on record: with the exception of one cell line. The procedure:
The COMPARE analysis uses a Pearson analysis to compare the activity of two compounds on the NCI 60-cell line panel and produces a correlation coefficient which indicates how similar the two compounds spectra of activity are and this may indicate how related their mechanism's of action are.
The human tumor cell lines of the National Cancer Institute (NCI) cancer screening panel were grown in RPMI 1640 medium containing 5% fetal bovine serum and 2 mM L-glutamine (Boyd and Paull, 1995). Cells were inoculated into 96 well microtiter plates in 0.1 mL at plating densities ranging from 5,000 to 40,000 cells/well depending on the doubling time of individual cell lines. […]
Following drug addition, the plates were incubated for an additional 48 h at 37° C., 5% CO2, 95% air, and 100% relative humidity. […] Bound stain was subsequently solubilized with 10 mM trizma base, and the absorbance was read on an automated plate reader at a wavelength of 515 nm. […] Using the seven absorbance measurements [time zero, (Tz), control growth, (C), and test growth in the presence of drug at the five concentration levels (Ti)], the percentage growth was calculated at each of the drug concentrations levels. Percentage growth inhibition was calculated as:
Three dose response parameters were calculated for each experimental agent. […] The drug concentration resulting in total growth inhibition (TGI) was calculated from Ti=Tz. […]

[2] abbreviates: 5 mg/kg p.o., Prophylactic regime.
[3] abbreviates: 5 mg/kg p.o., Therapeutic regime.
Setting [4] is: 15 mg/kg p.o., Prophylactic regime.
[5] abbreviates: 15 mg/kg p.o., Therapeutic regime.

Procedure for Caco-2 cells: Confluent Caco-2 cells (Li, A. P., 1992; Grass, G. M., et al., 1992, Volpe, D. A., et al., 2001) in a 24 well Corning Costar Transwell format were provided by In Vitro Technologies Inc. (IVT Inc., Baltimore, Md., USA). The apical chamber contained 0.15 mL Hank's balanced buffer solution (HBBS) pH 7.4, 1% DMSO, 0.1 mM Lucifer Yellow. The basal chamber contained 0.6 mL HBBS pH 7.4, 1% DMSO. Controls and tests were incubated at 37° C. in a humidified incubator, shaken at 130 rpm for 1 h. Lucifer Yellow permeates via the paracellular (between the tight junctions) route only, a high Apparent Permeability (Papp) for Lucifer Yellow indicates cellular damage during assay and all such wells were rejected. […] Compounds were tested in a uni- and bi-directional format by applying compound to the apical or basal chamber (at 0.01 mM). Compounds in the apical or basal chambers were analysed by HPLC-MS (Method A, see Materials & Methods). Results were expressed as Apparent Permeability, Papp, (nm/s) and as the Flux Ratio (A to B versus B to A).
[formula] • Volume Acceptor: 0.6 ml (A>B) and 0.15 ml (B>A) • Area of monolayer: 0.33 cm2 • Δtime: 60 min
A positive value for the Flux Ratio indicates active efflux from the apical surface of the cells.

In the case of `COC1CC2CCC(C)C(O)(O2)C(=O)C(=O)N2CCCCC2C(=O)OC(C(C)CC2CCC(O)CC2)CC(=O)C(C)C=C(C)C(O)C(OC)C(=O)C(C)CC(C)C=CC=CC=C1C` (centres unmarked) [39-desmethoxyrapamycin], the “Test/Control (%) at drug concentration” value with MDA468 (MDA468, 1 μM) came to 65%; in the series on MDA468 (MDA468, 10 μM), 13.5%; in the series on 1138L (1 μM), 52%; in the series on 1138L (10 μM), 9.5%; in the series with H460 (H460, 1 μM) it was 71%; with H460 (H460, 10 μM), 55.5%. Besides, the “Test/Control (%) at drug concentration” value in the series with 251L (1 μM) is 86%; in the series with 251L (10 μM) it was 32.5%; in the series with MCF7 (MCF7, 1 μM) it was 92.5%; with MCF7 (MCF7, 10 μM), 18.5%; in the series with A498 (A498, 1 μM) it was 62.5%; in the series on A498 (A498, 10 μM), 43.5%. The “Test/Control (%) at drug concentration” value was determined as 74.5% in the series on LNCAP (1 μM) and 28.5% in the series with LNCAP (10 μM). Moreover, in the series on Caco-2 cells (bi-directional format), the “Caco-2: Efflux Ratio” value came out at 15. In addition, the “Caco-2: Papp” value with Caco-2 cells (pH 7.4, 1 h) came out at 2.9 ×10⁻⁶ cm/s. The same compound yielded an AUCBLOOD i.v. in [1] (iv, 3 mg/kg) of 15444.3. This compound also yielded an AUCBRAIN i.v. in series [1] (iv, 3 mg/kg) of 24911.4. The same compound gave an AUCBLOOD p.o. in series [1] (po, 10 mg/kg) of 16856.5. For the same compound, the AUCBRAIN p.o. in series [1] (po, 10 mg/kg) came to 1697.69. For the same compound, the “Cumulative score Mean ± St Dev.” value is 17 ± 4.6 in the series on EAE (setting [2]), 30 ± 3.1 in the series with EAE (setting [3]), 22 ± 22 in the series with EAE (setting [4]) and 32 ± 5.7 in the series with EAE (setting [5]). The “Duration (days) Mean ± St Dev.” value is reported as 10 ± 1.8 days in the series with EAE (setting [2]), 15 ± 1.3 days in the series with EAE (setting [3]), 10 ± 3.4 days in the series with EAE (setting [4]) and 16 ± 3.3 days in the series with EAE (setting [5]). Moreover, the “Onset Mean ± St Dev.” value with EAE (setting [2]) amounted to 12 ± 2.1; with EAE (setting [3]) it was 10 ± 1.0; in the series with EAE (setting [4]) it was 12 ± 2.4; in the series with EAE (setting [5]) it was 9 ± 1.4. In addition, in the series with EAE (5 and 15 mg/kg, prophylactic and therapeutic regime), the “efficacy in the EAE model compared to cyclophosphamide” value is recorded as “equivalent efficacy in this model to cyclophosphamide”. Moreover, in the series on NCI 60 cell line panel, the “efficacy against high MDR-expressing cell lines when compared to rapamycin” value was “equivalent or improved efficacy”.
Take `CO[C@H]1C[C@@H]2CC[C@@H](C)[C@@](O)(O2)C(=O)C(=O)N2CCCC[C@H]2C(=O)O[C@H]([C@H](C)C[C@@H]2CC[C@@H](O)[C@H](OC)C2)CC(=O)[C@H](C)/C=C(\C)[C@@H](O)[C@@H](OC)C(=O)[C@H](C)C[C@H](C)/C=C/C=C/C=C/1C` [Rapamycin]: the “Test/Control (%) at drug concentration” value was found to be 56.5% in the series on MDA468 (MDA468, 1 μM); 32% in the series with MDA468 (MDA468, 10 μM); 42% in the series on 1138L (1 μM); 21.5% with 1138L (10 μM); 67% in the series with H460 (H460, 1 μM); 75.5% in the series with 251L (1 μM). Besides, the “Test/Control (%) at drug concentration” value with 251L (10 μM) stood at 40%; in the series with MCF7 (MCF7, 1 μM), 68.5%; in the series on MCF7 (MCF7, 10 μM), 26.5%; in the series with A498 (A498, 1 μM) it was 58.5%; with A498 (A498, 10 μM), 48.5%; with LNCAP (1 μM), 61%. Moreover, the “Test/Control (%) at drug concentration” value in the series on LNCAP (10 μM) was 34%.
